Test results taken from patent US9012166B2, “Method for assaying histone methylation enzyme activity” (Kyushu Institute of Technology, priority 2010, dated 2015).

What was measured:
Format in all cases: biochemical
[1] = test system: trypsin; assay: LC/MS analysis of reaction between substrate compound and trypsin; details: Example 3; 37° C., 15 minutes
Description: (§1) Distilled water was added to 10 μL of 2×HMT buffer (100 mM Tris-HCl (pH 8.5), 20 mM MgCl2, 40 mM KCl, 20 mM 2-mercaptoethanol, 500 mM sucrose) and 1 μL of a BocLysMCA solution to adjust the total volume to 20 μL. To the resultant solution was added 30 μL of a peptidase solution (20 mg/mL trypsin or 20 mAU/mL lysyl endopeptidase), which was then mixed and incubated at 37° C. for 15 minutes. Then, the solution was applied to a liquid chromatograph mass spectrometer (LC/MS) for analysis. Analysis was performed by the same method as that for the above analysis except for using monomethylated BocLysMCA (i.e., “BocLys(Me)MCA”), dimethylated BocLysMCA (i.e., “BocLys(Me)2MCA”), or trimethylated BocLysMCA (i.e., “BocLys(Me)3MCA”) in place of BocLysMCA. Analysis was also carried out by the same method except for using, in place of the above-described peptidase solution, an equal volume of distilled water.

[2] = biological target: lysyl endopeptidase (Achromobacter lyticus, UniProt P15636); assay: LC/MS analysis of reaction between substrate compound and lysyl endopeptidase; details: Example 3; 37° C., 15 minutes
Description: as §1

[3] = biological target: T1, G9a (Mus musculus, UniProt Q9Z148); assay: Western blot evaluation of histone methyltransferase inhibitor, G9a; details: FIG. 17
T1 sequence (Q9Z148 1-1263): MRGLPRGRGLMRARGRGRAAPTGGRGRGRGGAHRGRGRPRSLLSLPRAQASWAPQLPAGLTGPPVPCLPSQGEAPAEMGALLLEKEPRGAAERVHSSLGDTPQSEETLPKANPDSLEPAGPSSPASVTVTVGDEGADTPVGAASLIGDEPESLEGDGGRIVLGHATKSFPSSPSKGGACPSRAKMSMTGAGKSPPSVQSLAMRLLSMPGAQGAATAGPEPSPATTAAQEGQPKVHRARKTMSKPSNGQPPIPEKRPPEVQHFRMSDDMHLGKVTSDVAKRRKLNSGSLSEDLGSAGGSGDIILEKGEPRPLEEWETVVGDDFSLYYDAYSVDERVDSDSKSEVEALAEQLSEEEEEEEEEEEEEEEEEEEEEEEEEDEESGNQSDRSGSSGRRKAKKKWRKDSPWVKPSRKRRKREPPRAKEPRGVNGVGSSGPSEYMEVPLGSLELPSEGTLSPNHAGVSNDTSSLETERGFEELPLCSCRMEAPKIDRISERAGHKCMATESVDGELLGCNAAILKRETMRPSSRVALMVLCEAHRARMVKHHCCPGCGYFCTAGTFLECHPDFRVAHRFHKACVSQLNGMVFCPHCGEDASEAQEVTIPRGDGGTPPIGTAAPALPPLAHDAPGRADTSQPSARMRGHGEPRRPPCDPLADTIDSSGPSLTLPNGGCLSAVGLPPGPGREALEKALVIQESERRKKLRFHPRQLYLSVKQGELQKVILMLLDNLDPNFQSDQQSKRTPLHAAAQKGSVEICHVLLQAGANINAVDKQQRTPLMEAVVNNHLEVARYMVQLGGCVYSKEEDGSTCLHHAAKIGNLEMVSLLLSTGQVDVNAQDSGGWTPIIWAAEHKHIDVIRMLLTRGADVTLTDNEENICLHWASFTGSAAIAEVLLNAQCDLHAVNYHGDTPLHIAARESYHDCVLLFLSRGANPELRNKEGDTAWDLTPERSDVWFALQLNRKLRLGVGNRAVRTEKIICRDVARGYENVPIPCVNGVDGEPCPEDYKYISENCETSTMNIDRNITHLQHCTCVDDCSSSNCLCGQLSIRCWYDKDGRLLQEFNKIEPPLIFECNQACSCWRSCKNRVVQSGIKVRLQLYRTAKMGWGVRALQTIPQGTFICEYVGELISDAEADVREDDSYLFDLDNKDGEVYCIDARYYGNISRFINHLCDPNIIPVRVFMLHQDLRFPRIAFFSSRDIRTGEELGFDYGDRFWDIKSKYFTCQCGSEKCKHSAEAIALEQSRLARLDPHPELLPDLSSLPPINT
Description: To examine whether the activity of a histone methyltransferase inhibitor could be evaluated by an assay for measuring histone methyltransferase activity using a peptidyl MCA, the assay for measuring histone methyltransferase activity was attempted. However, the activity of gliotoxin as a histone methyltransferase inhibitor was evaluated by Western blot, prior to the assay for measuring histone methyltransferase activity. Gliotoxin is known not to inhibit the methylation activity of Set9 but to inhibit the methylation activity of G9a. […] The following assay for measuring histone methyltransferase activity was carried out in order to examine whether the same results as those from the Western blot could also be obtained from the assay for measuring histone methyltransferase activity.

lysyl endopeptidase, sequence (P15636 206-473 limits assumed, species assumed): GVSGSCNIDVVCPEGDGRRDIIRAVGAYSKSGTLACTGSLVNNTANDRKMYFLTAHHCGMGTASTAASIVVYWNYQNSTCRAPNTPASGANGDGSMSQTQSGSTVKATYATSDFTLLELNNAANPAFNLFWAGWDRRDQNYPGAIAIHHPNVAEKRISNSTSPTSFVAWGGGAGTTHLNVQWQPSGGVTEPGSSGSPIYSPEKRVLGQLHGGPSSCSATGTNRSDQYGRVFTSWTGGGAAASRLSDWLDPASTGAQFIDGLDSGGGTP

| Compound | hydrolysis by trypsin (LC/MS peaks) [1] | hydrolysis by lysyl endopeptidase (LC/MS peaks) [2] | inhibition of the methylation of G9a (Western blot) [3] |
| --- | --- | --- | --- |
| Cc1cc(=O)oc2cc(NC(=O)C(CCCCN)NC(=O)OC(C)(C)C)ccc12 (stereo not drawn) [BocLysMCA, Boc-K-MCA] | most BocLysMCA was hydrolyzed | most BocLysMCA was hydrolyzed | – |
| CN1C(=O)[C@]23CC4=CC=C[C@H](O)[C@H]4N2C(=O)[C@@]1(CO)SS3 [gliotoxin] | – | – | inhibited |
